The values that follow are results of earlier work, collected in patent US6864048B2, “Factorial chemical libraries” (Affymetrix, Inc., priority 1993, dated 2005).

By Kd is commonly meant the free concentration of one partner at which half of the binding sites on the other are occupied at equilibrium, for simple one-to-one binding.

The data set deals with antibody. The conditions noted are these: binding to the antibody; peptide identified by recursive retrosynthesis of a hexapeptide library.

As to DVPYDA, the Kd was 30 nM.
